Measured values as given in patent publication US10239887B2, “Positive allosteric modulators of the muscarinic acetylcholine receptor M4” (Vanderbilt University, priority 2016, dated 2019).

Tests used:
rat mAChR M4 = molecular target: T1, rat mAChR M4 (Rattus norvegicus, UniProt P08485); assay: mAChR M4 cell-based functional assay (calcium flux), rat M4; parameters: Emax: dose or concentration left out as unconfirmed; conditions: for EC50: read-out: Rat M4 EC50, CHO-K1 rM4-Gqi5 cells, calcium flux, increase in EC20 acetylcholine response
T1 sequence (P08485 1-478): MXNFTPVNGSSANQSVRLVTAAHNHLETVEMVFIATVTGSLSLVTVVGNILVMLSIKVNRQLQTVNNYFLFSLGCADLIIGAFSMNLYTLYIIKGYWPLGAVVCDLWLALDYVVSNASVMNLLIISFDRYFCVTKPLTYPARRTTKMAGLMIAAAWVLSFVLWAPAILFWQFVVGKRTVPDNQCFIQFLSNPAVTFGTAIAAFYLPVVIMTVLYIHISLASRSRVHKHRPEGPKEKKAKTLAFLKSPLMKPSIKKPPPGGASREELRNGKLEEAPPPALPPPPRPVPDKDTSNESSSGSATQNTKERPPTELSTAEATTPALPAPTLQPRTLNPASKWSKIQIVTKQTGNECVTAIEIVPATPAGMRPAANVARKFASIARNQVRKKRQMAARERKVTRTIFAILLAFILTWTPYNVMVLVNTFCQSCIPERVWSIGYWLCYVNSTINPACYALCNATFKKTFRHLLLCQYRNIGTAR

human mAChR M4 = molecular target: T2, human mAChR M4 (Homo sapiens, UniProt P08173); assay: mAChR M4 cell-based functional assay (calcium flux), human M4; conditions: for Emax: Human M4, % ACh maximum at 30 μM; for EC50: Human M4 EC50, CHO-K1 hM4-Gqi5 cells, calcium flux, increase in EC20 acetylcholine response
T2 sequence (P08173 1-479): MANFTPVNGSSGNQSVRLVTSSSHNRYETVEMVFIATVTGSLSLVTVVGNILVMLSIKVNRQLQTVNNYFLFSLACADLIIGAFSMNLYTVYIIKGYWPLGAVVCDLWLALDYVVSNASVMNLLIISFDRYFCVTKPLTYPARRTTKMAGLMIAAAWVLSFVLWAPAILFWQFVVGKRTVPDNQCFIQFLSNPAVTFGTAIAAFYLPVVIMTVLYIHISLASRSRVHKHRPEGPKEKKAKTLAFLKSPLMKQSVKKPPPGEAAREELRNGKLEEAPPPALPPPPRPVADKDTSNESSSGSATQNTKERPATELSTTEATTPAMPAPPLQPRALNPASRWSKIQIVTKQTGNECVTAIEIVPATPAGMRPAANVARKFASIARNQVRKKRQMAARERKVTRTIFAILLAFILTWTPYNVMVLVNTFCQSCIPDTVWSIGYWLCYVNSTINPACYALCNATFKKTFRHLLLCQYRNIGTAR

[1] = tested on: amphetamine-induced hyperlocomotion; assay: amphetamine-induced hyperlocomotion in rats; type: in vivo, male Sprague-Dawley rats; conditions: 10 mg/kg p.o.; rat; 1 mg/kg amphetamine s.c.
Description: d-Amphetamine hemisulfate was obtained from Sigma (St. Louis, Mo.). Salt-correction was used to determine the correct amount of the d-amphetamine hemisulfate form in milligrams to add to sterile water in order to yield a […] solution, which would be dosed at 1 mL/kg body weight of each animal. […] The solutions were formulated so that animals were injected with a volume equal to 10 mL/kg body weight for all compounds. The appropriate amount according to the dosage was mixed in 10% Tween 80 (Sigma) in sterile water. The mixtures were then vortexed and stored in a 39° C. sonication bath for 1 hour, until in a microsuspension (except for the highest dose, which was a suspension).
Male Sprague-Dawley rats weighing 239-300 grams and averaging 265 g (Harlan, Inc., Indianapolis, Ind.) were used. They were housed in the animal care facility certified by the American Association for the Accreditation of Laboratory Animal Care (AALAC) under a 12-hour light/dark cycle (lights on: 6 a.m.; lights off: 6 p.m.) and had free access to food and water. The animals used in this experiment were food-deprived the evening before experimentation for oral dosing of compound/vehicle. The experimental protocols performed during the light cycle were approved by the Institutional Animals Care and Use Committee of Vanderbilt University and conformed to the guidelines established by the National Research Council Guide for the Care and Use of Laboratory Animals.
Male Harlan Sprague Dawley rats were habituated in Smart Open Field locomotor activity test chambers (Hamilton-Kinder, San Diego, Calif.) with 16×16 photo beams to automatically record locomotor activity. […] They were monitored for an additional 30 minutes and then injected subcutaneously with vehicle or 1 mg/kg amphetamine. Animals were then monitored for an additional 60 minutes, for a total of 120 minutes. Data were expressed as changes in ambulation defined as total number of beam breaks per 5 minute interval. Terminal brain and plasma samples were collected at the end of the study for pharmacokinetic analysis.
Behavioral data were analyzed using a two-way ANOVA with main effects of treatment and time. Post hoc analysis was performed using a Dunnett's t-test with all treatment groups compared to the VAMP group using GraphPad Prism V.5.04 (GraphPad Software, San Diego, Calif.). Data were graphed using GraphPad Prism V.5.04 (GraphPad Software, San Diego, Calif.). A probability of p<0.05 was taken as the level of statistical significance. In addition, the total number of beam breaks from the amphetamine administration (65 min) to the end of the study (120 min) was calculated and graphed. Percent Reversal was calculated as follows using Microsoft Excel: In each animal, total ambulation from t=65 to t=120 was summed. The mean of each sum was calculated in the VAMP group. Then, for each animal, Percent Reversal was calculated with the following formula: Percent Reversal=100−{[(total ambulation in each animal from t=65 to t=120)/(mean of each sum from t=65 to t=120 in VAMP group)]*100}. The mean Percent Reversal, as well as the standard error, was calculated for each dose group using GraphPad Prism V5.04.

Compound	Emax (rat mAChR M4) [%]	EC50 (rat mAChR M4) [nM]	Emax (human mAChR M4) [%]	EC50 (human mAChR M4) [nM]	percent reversal of amphetamine-induced hyperlocomotion [1] [%]
Cc1cnc2sc3c(N4CCC4)ncnc3c2c1 [Compound 18, 4-(azetidin-1-yl)-8-methylpyrido[3′,2′:4,5] thieno[3,2-d]pyrimidine]	51	2500	58		
Cc1nnc2sc3c(N4CC(c5ccncc5)C4)ncnc3c2c1C [Compound 24, 3,4-dimethyl-8-(3-(pyridin-4-yl)azetidin-1-yl)pyrimido[4′,5′:4,5] thieno[2,3-c]pyridazine]	40	185	62		
Cc1nnc2sc(C(=O)NCc3ccc(S(=O)(=O)C(F)(F)F)cc3)c(N)c2c1C [VU0467154, reference compound]					58.9

Further molecules by falling EC50 (rat mAChR M4), results first:

Emax (rat mAChR M4) [%]	EC50 (rat mAChR M4) [nM]	Emax (human mAChR M4) [%]	EC50 (human mAChR M4) [nM]	Compound	percent reversal of amphetamine-induced hyperlocomotion [1] [%]
46	2800		> 10000	FC(F)(F)c1cnc(N2CC(Nc3ncnc4c3sc3nccnc34)C2)nc1 [Compound 20, N-(1-(5-(trifluoromethyl)pyrimidin-2-yl)azetidin-3-yl)pyrazino[2′,3′:4,5] thieno[3,2-d]pyrimidin-4-amine]	
54	1150	36	456	Cc1cnc2sc3c(N4CC5(COC5)C4)ncnc3c2c1 [Compound 19, 6-(8-methylpyrido [3′,2′:4,5]thieno[3,2-d]pyrimidin-4-yl)-2-oxa-6-azaspiro[3.3]heptane]	
76	424	32		Cc1cnc2sc3c(NC4CN(c5ncc(C(F)(F)F)cn5)C4)ncnc3c2c1 [Compound 17, 8-methyl-N-(1-(5-(trifluoromethyl)pyrimidin-2-yl)azetidin-3-yl)pyrido[3′,2′:4,5] thieno[3,2-d]pyrimidin-4-amine]	
